These results are taken from patent US6586391B1, “Method of ameliorating erectile dysfunction” (Queen's University at Kingston, priority 1996, dated 2003).

The test system of test [1] is Male Sprague-Dawley rats. As to the kind of experiment: Experiment 2: effects of PD 145065 or losartan before or after NOS blockade on MAP. In kind it is in vivo, rat. The protocol: (§1) Male Sprague-Dawley rats (325-400 g) obtained from Charles River Laboratories (Montreal, Quebec, Canada) were housed individually under conditions of a 12 h light/12 h dark cycle, with room temperature at 22-24° C., and were provided with Purina Rodent Chow and tap water ad libitum for at least 2 days before any experiments were started.
The surgical method was based on the technique of Thompson et at. (Hypertension 20: 809-815 (1992)). […] Two days after surgery, MAP could be recorded (Narco Physiograph, E&I Instruments, Houston, Tex. or MacLab Data Acquisition System, ADInstruments, Milford, Mass., U.S.A.). […] Baseline MAP was determined from mean readings over 5 min, taken from each rat at 15 min intervals for at least 1 h prior to the start of any experiment. […] MAP values are expressed as an average MAP over 2-3 min following the establishment of a new steady state (i.e., MAP is no longer changing).
After obtaining appropriate baseline steady-state levels of MAP, the effects of administration of losartan (30 mg/kg i.p., n=3, under 30 mg/kg i.p. pentabarbital anesthetic) or PD 145065 (10 mg/kg/min, i,v., n=6, conscious rats previously catheterized) on resting MAP and then on the L-NAME (100 mg/kg, i.p.)-induced pressor response were assessed in two ways. […]

For test [2], the system named is Male Sprague-Dawley rats. The test can be described thus: Experiment 1: cumulative vasoconstrictor blockade following acute NO synthase inhibition, MAP response. The test is classed as in vivo, rat. Conditions: for % of range (MAP lowering as % of MAPrange) / delta MAP (peak MAP lowering): sequential cumulative blockade, mean ± S.D. On the procedure:
as §1
The surgical method was based on the technique of Thompson et at. (Hypertension 20: 809-815 (1992)). In brief, rats were anesthetized with ketamine/xylazine (70/5 mg/kg i.p.), and the descending aorta distal to the kidneys was catheterized with small bore TEFLON® tubing (0.012-in. i.d., o.d. 30 gauge, Cole-Parmer, Laval, Quebec, Canada) inserted into vinyl tubing (0.02-in. i.d., 0.060-in, o.d., 23 gauge). […] The catheters were filled with heparinized saline (10 IU/mL) and held in place by a small amount of cyanoacrylate tissue glue at the puncture site. The catheters were tunneled subcutaneously and exteriorized at the back of the neck and sutured in place. Two days after surgery, MAP could be recorded (Narco Physiograph, E&I Instruments, Houston, Tex. or MacLab Data Acquisition System, ADInstruments, Milford, Mass., U.S.A.). After connection, an equilibration period of approximately 30 min was allowed for the determination of the steady state level of MAP before any recording began. Baseline MAP was determined from mean readings over 5 min, taken from each rat at 15 min intervals for at least 1 h prior to the start of any experiment. After obtaining a baseline MAP, the cumulative/sequential vasoconstrictor blockade was started. MAP values are expressed as an average MAP over 2-3 min following the establishment of a new steady state (i.e., MAP is no longer changing).
NOS was inhibited by a single i.p. injection of N^ω-nitro-L-arginine-methyl ester (L-NAME, Sigma, 100 mg/kg; 100 mg/mL 0.9% sterile saline solution, Baxter Corp., Toronto, Ontario, Canada). The α1-adrenoceptor antagonist prazosin® (Sigma Chemical Company, St. Louis, Mo., U.S.A.) at a dose of 1 mg/Kg (in 0.9% saline and 5% ethanol [vol/vol], total volume 1 mL/kg) was used to block the majority of the SNS induced peripheral vasoconstriction. The non-peptide AT1 receptor antagonist losartan® (Dupont-Merck, 30 mg/kg i.p.) was used to block the effects of Ang II. The V1/V2 receptor antagonist [β-mercapto-β, β-cyclopenta-methylenepropionyl, O-Et-Tyr2-Val4-Arg8]-vasopressin (AVP) (20 μg/kg/min i.v., Sigma) was utilized to block the effects of vasopressin. The effects of the endothelin vasoconstrictor system, via ETA and ETB receptors, were blocked with a commercially available endothelin antagonist PD 145065 (100 mg/kg/min i.v., bolus, donated by Parke-Davis Pharmaceuticals). Each rat in the study received all of the aforementioned vasoconstrictor antagonists (i.e., a cumulative/sequential blockade).
The interval between administration was up to 15 min, where a new steady state MAP had been established before the blockade of the next vasoconstrictor system.
All data are expressed as a peak MAP lowering as a mean±S.D. Comparison of means between groups at each treatment level was done using a Student's T-test with the Bonferroni correction method, where appropriate.

In a further test the test system is pudendal vasculature. As to the kind of experiment: Isolated perfusion of the pudendal vasculature, perfusion pressure response. On the set-up: species or system rat. On the procedure:
Vascular responses using the isolated perfusion of the pudendal vasculature preparation have been assessed. FIG. 3 illustrates the dose response curve to the α-adrenoceptor agonist methoxamine (MXA) alone. FIG. 4 illustrates the dose-response curve to endothelin alone.
Male Wistar rats (400-500 g), obtained from Charles River Laboratories (Montreal, Quebec, Canada), were housed individually under conditions of a 12 h light/12 h dark cycle (temperature of 22-24° C.), and were provided with Purina Rodent Chow and tap water ad libitum for at least two days before starting any experiment.
The rats were anaesthetized with sodium pentabarbital (60 mg/kg i.p.) and the lower abdominal aorta was exposed through a mid-line incision. The isolation of the pudendal vasculature was developed by sequential ligation of all branches of the abdominal aorta not directly supplying the pudendal vasculature. The following arteries were dissected free and ligated: iliaca, femoralis, poplitea, glutea cranial, umbilicalis, epigastria caudal, pudenda external, glutea caudal, obturatoria, circumflexa femoris lateral, circumflexa femoris medial. After heparinization (1000 U/kg), the abdominal aorta was cannulated with a smooth, blunted 19-gauge needle. The arterial catheter was placed caudad into the aorta and the vena cava was cut and vented freely through the widely open abdominal cavity. The tip of the needle was advanced down the aorta to the iliac bifurcation and sutured in place. […] The perfusate was infused for 10 min, to flush the penile vasculature of blood, before starting any experiment.
The perfusate consisted of dextran (15%, average molecular weight: 71,400 Da, Sigma, St. Louis, Mo., U.S.A.) in Tyrode's solution (pH 7.4), which was aerated with 95% O2 and 5% CO2. The composition of the Tyrode's solution was KCI 20, CaCl2.2H2O 32.3, MgCl2.6H2O 5.1, NaH2PO4.2H2O 6.2, NaHCO3 100, glucose 100, and NaCl 800 mg per 100 mL fluid. The perfusate was held in a reservoir, and passed through a bubble trapping/mixing chamber and heating bath by an injection port located prior to the bubble trap for the introduction of pharmacological agents. An in-line peristaltic pump was used to establish flow at 0.5 mL/kg/min (Minipuls 2, Gilson Medical Elec., Inc., Middleton, Wis., U.S.A.). Added pharmacological agents, methoxamine (MXA) and sodium nitroprusside (SNP), were delivered by a syringe pump (Harvard Apparatus Infusion/Withdrawal Pump, Millis, Mass., U.S.A.). A servo-controlled heat chamber served to maintain rectal temperature at 36-38° C.

For test [3] the following is noted: background statement; cited from earlier work.
In the next test the test system is adult Wistar rats. The test can be described thus: Apomorphine-induced erection model. In kind it is in vivo, rat. On the procedure: Using the well-established apomorphine (APO)-induced erection model (apomorphine 80 μg/kg, administered subcutaneously), we counted the erections per 30 min interval in adult Wistar rats, per the protocol of Heaton, J. P. W., et al. (1991)(43). Rats were pretested with apomorphine alone to confirm and quantify normal erectile response(control Groups A and B). Rats were then treated with L-NAME (100 mg/kg, administered intraperitoneally) alone, acutely (at<1 h) and at 3 h; or the combination of ETA/B antagonist (PD 145065, 5 mg/kg/min, continuous intravenous infusion)+L-NAME.

[4] abbreviates: L-NAME (100 mg/kg i.p.) treated group.

Regarding `CCCCc1nc(Cl)c(CO)n1Cc1ccc(-c2ccccc2-c2nn[nH]n2)cc1` [losartan], in the test on Male Sprague-Dawley rats [1] (losartan 30 mg/kg i.p., pentabarbital anesthetic, baseline 100±15 mmHg), the “level of MAP after treatment” value is 78±21 mmHg. Moreover, the “% of range (MAP lowering as % of MAPrange)” value is on record as 24 ± 12% in the test on Male Sprague-Dawley rats [2] (setting [4]) and 27 ± 8% in the test with Male Sprague-Dawley rats [2] (saline control group). In addition, the “delta MAP (peak MAP lowering)” value with Male Sprague-Dawley rats [2] (setting [4]) is recorded as 25 ± 13 mmHg; in the test on Male Sprague-Dawley rats [2] (saline control group) it was 20 ± 6 mmHg.

For the compound `COc1ccc(OC)c(C(O)C(C)N)c1` (stereo not drawn) [methoxamine], the “Δ Perfusion Pressure” value is given as 0 mmHg in the test on pudendal vasculature (Control, methoxamine 0.1 μg/ml, n = 6); 0 mmHg in the test with pudendal vasculature (Control, methoxamine 0.25 μg/ml, n = 6); 0 mmHg in the test on pudendal vasculature (Control, methoxamine 0.5 μg/ml, n = 6); 4 ± 1 mmHg in the test with pudendal vasculature (Control, methoxamine 1.0 μg/ml, n = 6); 11 ± 2 mmHg in the test with pudendal vasculature (Control, methoxamine 2.0 μg/ml, n = 6); 36 ± 11 mmHg in the test on pudendal vasculature (Control, methoxamine 4.0 μg/ml, n = 6). Further, the “Δ Perfusion Pressure” value in the test on pudendal vasculature (Control, methoxamine 8.0 μg/ml, n = 6) was 67 ± 24 mmHg; in the test with pudendal vasculature (Endothelin sub-pressor, methoxamine 0.1 μg/ml, n = 4) it was 0 mmHg; in the test with pudendal vasculature (Endothelin sub-pressor, methoxamine 0.25 μg/ml, n = 4), 34 ± 2 mmHg; in the test on pudendal vasculature (Endothelin sub-pressor, methoxamine 0.5 μg/ml, n = 4), 93 ± 30 mmHg; in the test with pudendal vasculature (Endothelin sub-pressor, methoxamine 1.0 μg/ml, n = 4) it was 168 ± 16 mmHg. In addition, in the test on pudendal vasculature (with low sub-pressor dose of endothelin vs MXA alone), the “shift of MXA concentration-response (perfusion pressure) relationship to lower concentrations” value is reported as “more than 10 fold”.

As for `CC[C@H](C)[C@H](NC(=O)[C@H](CC(=O)O)NC(=O)[C@H](CC(C)C)NC(=O)[C@H](Cc1c[nH]cn1)NC(=O)[C@@H]1CSSC[C@H](N)C(=O)N[C@@H](CO)C(=O)N[C@H]2CSSC[C@H](NC(=O)[C@H](CCC(=O)O)NC(=O)[C@H](CCCCN)NC(=O)[C@H](CC(=O)O)NC(=O)[C@H](CCSC)NC(=O)[C@H](CC(C)C)NC(=O)[C@H](CO)NC(=O)[C@H](CO)NC2=O)C(=O)N[C@@H](C(C)C)C(=O)N[C@@H](Cc2ccc(O)cc2)C(=O)N[C@@H](Cc2ccccc2)C(=O)N1)C(=O)N[C@H](C(=O)N[C@@H](Cc1c[nH]c2ccccc12)C(=O)O)[C@@H](C)CC` [Endothelin], the “Δ Perfusion Pressure” value with pudendal vasculature (Endothelin sub-pressor alone, methoxamine 0 μg/ml, n = 4) turned out to be 0 mmHg.

With “ET-1: endothelin-1, vasoconstrictor peptide”, the “potency as a vasoconstrictor relative to Ang II or catecholamines” value in test [3] was “approximately 100 times”.

With `COc1cc2nc(N3CCN(C(=O)c4ccco4)CC3)nc(N)c2cc1OC` [prazosin], the “% of range (MAP lowering as % of MAPrange)” value in the test on Male Sprague-Dawley rats [2] (setting [4]) is 25 ± 10 %; in the test with Male Sprague-Dawley rats [2] (saline control group), 48 ± 8%. For the same compound, the “delta MAP (peak MAP lowering)” value amounted to 27 ± 14 mmHg in the test on Male Sprague-Dawley rats [2] (setting [4]) and 36 ± 6 mmHg in the test with Male Sprague-Dawley rats [2] (saline control group).

Consider “[β-mercapto-β, β-cyclopenta-methylenepropionyl, O-Et-Tyr2-Val4-Arg8]-vasopressin [(O-ET)VAVP]”, for which the figures for the “% of range (MAP lowering as % of MAPrange)” value in the test with Male Sprague-Dawley rats [2] (setting [4]) and in the test on Male Sprague-Dawley rats [2] (saline control group) were 15 ± 9 % and 37 ± 15%, respectively. Besides, the “delta MAP (peak MAP lowering)” value with Male Sprague-Dawley rats [2] (setting [4]) was found to be 19 ± 13 mmHg; in the test on Male Sprague-Dawley rats [2] (saline control group) it was 21 ± 11 mmHg.

With `COC(=O)[C@@H](N)CCCNC(=N)N[N+](=O)[O-]` [L-NAME, N^ω-nitro-L-arginine-methyl ester], in the test on Male Sprague-Dawley rats [1] (saline pre-treatment group, L-NAME 100 mg/kg i.p.), the “delta MAP response 20 min after L-NAME” value is on record as 40±8 mmHg. Further, in the test on adult Wistar rats (L-NAME 100 mg/kg i.p. alone, at 3 h, apomorphine-induced), the “mean number of erections per 30 min interval” value is 3.7 ± 1.38. Also, the “steady state level of MAP” value in the test on Male Sprague-Dawley rats [2] (L-NAME-treated animals, before vasoconstrictor blockade) turned out to be 108±9 mmHg. The “experimentally induced pressure increase as a result of NOS inhibition” value with Male Sprague-Dawley rats [2] (rats) is on record as 30-40%.

Turning to `CN1CCc2cccc3c2[C@H]1Cc1ccc(O)c(O)c1-3` [apomorphine], the “mean number of erections per 30 min interval” value came out at 3.0 ± 1.31 in the test on adult Wistar rats (Group-A (control): apomorphine 80 μg/kg s.c. alone, mean ± S.D.) and 2.5 ± 0.58 in the test with adult Wistar rats (Group-B (control): apomorphine 80 μg/kg s.c. alone, mean ± S.D.).
